One data set addresses T1, HIV-1 integrase (Human immunodeficiency virus type 1 group M subtype B, UniProt P04585).
T1 construct: using the integrase coding domain from the HXB2 clone of HIV-1 DNA; made in house; host or cells: E. coli
The data set is described as follows: Integrase inhibition assay (cleavage and strand transfer of 32P-labelled HIV-1 U5/U3 oligonucleotide substrate). The format is biochemical. On the procedure:
Integrase was overproduced in E. coli from an inducible plasmid containing the integrase sequence under control of a lacI-regulated T7 polymerase using the integrase coding domain from the HXB2 clone of HIV-1 DNA (L. Ratner et al, AIDS Res. Hum. Retroviruses 3, 57-69 (1987)), pT7fll-IN. A one liter culture at an O.D. of 0.6 was induced by the addition of IPTG to 0.5 mM. After three hours, the cells were harvested by centrifugation and the pellets were stored at −70° C.
The integrase protein was purified by a modification of the method of Sherman and Fyfe (P. Sherman et al, Proc. Natl. Acad. Sci. USA 87, 5119-23 (1990)). The cells were lysed by thawing in a buffer (50 mM Tris-HCl pH 7.5, 5 mM dithiothreitol, 1 mM EDTA, 1 mg/ml lysozyme) on ice at 6 ml/g bacterial pellet for 30 minutes, and then incubating at 37° C. for 5 minutes. The lysate was centrifuged at 12,000×g for one hour. The pellets were resuspended in 50 mM Tris-HCl, pH 7.5, 1 mM dithiothreitol, 1 mM EDTA, 1 M NaCl (4 ml/g original bacteria). The homogenate was stirred for 30 minutes at 4° C. and recentrifuged for 30 minutes at 12,000×g.
The supernatant was made 0.8 M in ammonium sulfate by the slow addition of powder with stirring over a 30 minute period. The extract was then centrifuged to remove any precipitate and applied to a phenyl sepharose column. After a 50 ml wash with high salt buffer (50 mM Tris-HCl, 1 mM EDTA, 5 mM DTT, 2 M NaCl), the protein was eluted with a gradient from high salt to O salt buffer containing 10% (weight/vol) glycerol and further purified through a G75 Sephadex column to remove background nuclease. A one liter culture generates enough integrase activity to perform over a thousand drug inhibition assays.
Cleavage of specific sites is assessed as described in Sherman et al., supra, except that the assay buffer was the same as that reported by Chow et al, Science 255, 723-6 (1992). Single 20 mer oligonucleotides corresponding to either the U5 or U3 ends of HIV-1 are end-labeled with ^32P, annealed with its complement, purified, and used under the same conditions as described above for the endonuclease assay. Reaction products are denatured with formamide, electrophoresed through 20% denaturing polyacrylamide gels and visualized by autoradiography. Both cleavage and ligation activity can be assessed from one gel. To assess the ligation activity alone, “precleaved” substrate that had the −2 cleavage artificially produced by using a radiolabelled 18 mer oligonucleotide was also used for some experiments.
Integrase overproduced in E. coli was purified as described above in accordance with Sherman et al, supra, and used in drug inhibition assays. […] Dilutions of the inhibitor compounds described in Example 1 above were mixed with substrate before the addition of enzyme. The Assay was the same as described in Example 2 and used the substrate described in Example 2. Each assay was performed in duplicate. Radioactivity in bands on dried gels were quantitated with a Phosphor imager to assess drug effects on both the cleavage, nuclease, and ligation products. The IC50 values for integrase inhibition were calculated for both the cleaving and joining parts of the integrase reaction after determining the % inhibition of the control reaction for a series of drug concentrations. Compounds A, B, C, and D had similar effects on integrase activity. Compound A, however, caused aggregation of the substrate starting at relatively low concentrations (10 μM), complicating its assessment.

Data set [1] relates to HIV-1. In words: Magic cell HIV-1 inhibition assay. The format is cell-based, HIV-1 strain HXB2. Conditions: Human immunodeficiency virus 1; Magic cells, infectious units with or without drug, 4 h pretreatment, read two days later. On the procedure:
Cell lines used were CEM cells, a human T-cell lymphona cell line, A. Kaplan et al, J. Virol. 67, 4050-5 (1993), and Magic cells, J. Kimpton et al, J. Virol. 66, 2232-2239 (1992). The CEM cells were grown in RPM1-1640 medium supplemented with 5% FCS. The Magic Cells, a HELA derivative, were grown in DMEM/H supplemented with 5% FCS, G418 ([…]) and Hygromycin ([…]). The HIV isolate was strain HXB2, originally from Lee Ratner in the laboratory of Robert Gallo at the National Institutes of Health.
The magic cell assay described by Kimpton et al., supra, was used as described. This assay identifies individual cells infected with HIV-1 by the expression of tat, which transactivates an endogenous copy of the HIV-1 LTR linked to the lac2 reporter gene after integration, inducing β-galactosidase expression when x-gal is added to the cell medium. Any cell with integrated HIV-1 will turn blue. Thus, this assay provides a convenient way to determine the effect of HIV inhibitors at any early step up through the expression of tat, including the inhibition of integration.
The magic cells are plated in twelve-well plates one day prior to infection. The standard assay involves infection with approximately 200 infectious units of HIV-1. This gives an approximately 20 to 1 ratio of signal to background and sufficient numbers of infectious events to quantitate dim effects. The cells are pretreated with drug for 4 hours prior to virus infection, and virus adsorption takes place for 1 hour. The cells are washed with plain medium, and then medium with inhibitor is placed back on the cells. Two days later the cells are fixed after integration with x-gal, the indicator reagent for β-galactosidase production. The number of β-galactosidase expressing cells are quantitated by light microscopy.
The results of comparisons of infectious units with or without various concentrations of the bis-benzimididazoles drugs in the magic cell assay are expressed as IC50 values and are compiled in Table 2 above. Note that the best anti-HIV compounds (B-D) were also the best integrase inhibitors, except for compound A, which could not be accurately measured due to its substrate aggregating properties.

A short description of data set [2]: Toxicity assay (XTT) on the cell lines used to measure virus infectivity. The format is cell-based. The conditions noted are these: human. On the procedure: (§1) Three different toxicity tests were performed on the cell lines used to measure virus infectivity.
(§2) The initial test for toxicity utilized the XTT Assay as described by Weislow et al, J. Natl. Cancer Inst. 81, 577-586 (1989). This is the standard assay used originally to measure cell toxicity by potential reverse transcriptase inhibitors. Briefly, cells were grown to cells/ml and drug dilutions were added to the medium. After two days incubation, XTT reagent is added and incubation is continued for 4 h at 37° C. Following incubation, the plates are read at 450 minus 650 nm (the 650 value is the backround value which is automatically subtracted) with controls of media+XTT reagent without cells, and cells+media without reagent. Also a control of cells+media+XTT reagent was run for each plate. Medium without phenol red was employed to minimize background color as the XTT reagent goes from colorless (unreduced) to orange (reduced). The XTT reagent was freshly prepared on the day of assay as follows: 1 mg/ml of XTT in […] phenazine methosulfate. The phenazine methosulfate solution was prepared ahead of time and stored at 4° C. in a dark bottle. The XTT reagent is added to the microtiter wells at 24 ul per 100 ul of medium. The O.D. was measured on a Vmax plate reader from Molecular Devices Co. with data reduction. Results are expressed as percent of untreated controls. The least toxic compounds were Compounds A, B, and F with toxicities values at 500 μM or greater.
(§3) The third test for cell toxicity assessed growth rate in the presence of the test compound versus a control culture. Magic cells were grown over a period of 15 days with or without various dilutions of test compound. Aliquots were removed every other day and the cells were counted in a hemocytometer. The results are set forth in FIG. 2 herein (see also Table 2 below).
A general note: Tetrazolium assays rely on reduction of a dye to a coloured formazan, in cell work by metabolically active cells.

Data set [3] relates to Magic cells. The data set is described as above. It is filed as cell-based. The conditions noted are these: human, 2 days. The method, then: as §1, §2, §3
Data set [4] concerns HIV-1. The data set is described as follows: Standard reinfection assay of antiviral activity. The format is cell-based. The conditions noted are these: Human immunodeficiency virus 1. On the procedure:
In addition, the assessment of antiviral activity as measured by the standard reinfection assay was performed for compound B. The IC50 for compound B in this assay was 10-30 μM. This confirms that the Magic cell assay is suitable for screening potential integrase inhibitors with good antiviral activity.

For data set [5], the system named is Magic cells. The data set is described as follows: Plating efficiency test. It is filed as cell-based. The conditions noted are these: at the concentrations at which anti-viral effects were observed. On the procedure: Next, a plating efficiency test measured the ability of the cell to grow after incubation with drug for a number of days. Magic cells were grown from an initial cell concentration of 0.8×104 with or without various concentrations of test compound for 6 days. Plating ability of the cells was assessed by plating dilutions of each culture on plastic. Colony forming units were determined after growth for two to four days by counting colonies after staining the plates. Each sample was plated in duplicate and the colony number averaged.
Another test of cellular effects by the compounds was a measure of plating efficiency of the cells after incubation with various concentrations of test agents. This will assess the actual killing of the cells by the drugs. The IC50 values are expected to be much higher in this test.

The subject of data set [6] is Magic cells. In words: Growth rate in the presence of test compound. It is filed as cell-based. On the procedure:
as §3
The most sensitive test employed measurements of growth rates for the cells in the presence of the test compound. Although the anti-viral assay used was one that assessed early times of the viral life cycle, this test was carried out for 15 days, with counting of cell numbers in cultures performed every other day during this time.

[7] abbreviates: Integrase Cleavage IC50, % cleavage of the substrate compared to control.
[8] abbreviates: Integrase Strand Transfer IC50, joining part of the integrase reaction.

Where two headings read alike, the source gives them in different places. Bounds are passed on as bounds.

Broadly, the IC50 is the concentration that gives 50% inhibition.

Regarding `N=C(N)c1ccc2nc(C=Cc3nc4ccc(C(=N)N)cc4[nH]3)[nH]c2c1` [Compound A, 1,2-bis[5-amidino-2-benzimidazolyl]ethene], the figures for the 50% inhibitory concentration (IC50) against HIV-1 integrase (setting [7]), against HIV-1 integrase (setting [8]) and in the data set with HIV-1 [1] were 11 µM, 11.5 µM and 48 µM, respectively. Further, the “Concentration at which aggregation of the substrate starts” value on HIV-1 integrase (integrase assay substrate) is 10 µM. Also, the concentration for half-maximal inhibition (IC50) at 2 days in data set [2] is > 500 µM. The “XTT assay toxicity value” with Magic cells [3] was ≥ 500 µM.
Regarding `N=C(N)c1ccc2[nH]c(Cc3nc4cc(C5=NCCN5)ccc4[nH]3)nc2c1` [E, (5-Amidino-2-benzimidazolyl)-(5′-(2-imidazolinyl)-2′-benzimidazolyl)methane], the IC50 on HIV-1 integrase (setting [7]) is > 100 µM; against HIV-1 integrase (setting [8]), 122 µM; in the data set on HIV-1 [1] it was 16 µM. This molecule displayed an IC50 at 2 days in data set [2] of 65 µM.
With `CC(C)NC(=N)c1ccc2nc(C=Cc3nc4ccc(C(=N)NC(C)C)cc4[nH]3)[nH]c2c1` [Compound B, 1,2-bis[5-isopropylamidino-2-benzimidazolyl]ethene], the IC50 against HIV-1 integrase (setting [7]) is 61 µM; at HIV-1 integrase (setting [8]), 19 µM; with HIV-1 [1], 10 to 30 µM; in the data set with HIV-1 [4], 10 to 30 µM. Also, the concentration for half-maximal inhibition (IC50) at 2 days in data set [2] turned out to be 473 µM. The “XTT assay toxicity value” in the data set with Magic cells [3] is ≥ 500 µM. For the same molecule, the “Effect on Magic cell plating efficiency” value with Magic cells [5] is “no effect”. In the data set with Magic cells [6] (concentration that inhibited 50% of the viral integration events, up to two weeks), the “Effect on growth rate of the cell line” value is “no effect on the growth rate”. In addition, the “Effect on growth rate of the cells” value in the data set on Magic cells [6] (higher concentrations, 15 days test) is on record as “did effect the growth rate”.
As for `N=C(N)c1ccc2nc(Cc3nc4ccc(C(=N)N)cc4[nH]3)[nH]c2c1` [D, bis[5-amidino-2-benzimidazolyl]methane], the half-maximal inhibitory concentration (IC50) in the data set on HIV-1 [1] was 7 µM. For the same molecule, the IC50 at 2 days in data set [2] (Magic cells, read-out: Magic Cells Toxicity IC50) was 175 µM.

Source of the values: patent publication US6815461B1, “Method of inhibiting retroviral integrase” (The University of North Carolina at Chapel Hill, priority 1994, dated 2004).
